Measurements taken from publication PMC10982999, “Structure-Guided Design and Optimization of Covalent VHL-Targeted Sulfonyl Fluoride PROTACs” (Journal of Medicinal Chemistry, 2024).

What was measured:
physchem = conditions: buffer
Method: Table S1. Sulfonyl fluoride warhead stability for VHL-SF1 and VHL-SF2 was determined in
(1 picture or pasted object on this page, not shown here)

BRD4-HiBiT HEK293T cells = conditions: 18 h, 70-0.01 μM
VHL (VCB) = molecular target: T1, VHL (VCB) (Homo sapiens, UniProt P40337); assay: Intact-protein LC-MS of VCB labelling; assay type: binding; conditions: 100 μM compound, 24 h, room temperature
T1 construct: human VHL (UniPort entry P40337, residues 1 -213); 6xHis followed by TEV site (N, cleaved yes); made in house; host or cells: E. coli One Shot BL21(DE3)
Method: Initially, we subjected VHL-SF2-Biotin to the streptavidin shift assay and observed a greater extent of VHL modification (44%) than for VHL-SF1-Biotin under the same conditions (Figure S2). […] Intact LC–MS analysis confirmed single labeling of VHL by VHL-SF2, with 65% conversion at 24 h (Figure S5). Although we attempted several site ID identification experiments by digesting the labeled recombinant VHL, the Ser110-containing peptide was not detected in the samples treated with VHL-SF2. This observation is consistent with a change in peptide properties that is incompatible with mass spectrometry detection compared to untreated samples (Table S2). […]
Figure S4. Dose-response of VHL-SF1 following a 2 h pre-incubation in the presence of VCB and FAM-conjugated HIF1α-derived peptide, assessed by fluorescence polarization. […]
HEK293 cells (10 × 10^6 cells at 2 × 10^5 cells/ mL) were transfected with 2.6 µg of VHL-NanoLuc plasmid (PROMEGA) plus 24 µg of transfection carrier plasmid (PROMEGA) and incubated for 20 h at 37 °C, in a 5% CO2 incubator. […] Immediately after addition of tracer and compounds, cells were treated with digitonin after which NanoBRET Nano-Glo Substrate and inhibitor were added and BRET signal was measured in a Clariostar plate reader (BMG Labtech) at 450 nm and 610 nm within 5 min after addition of digitonin. […]

## Cc1cc([C@H](C(=O)N2C[C@H](S(=O)(=O)F)C[C@H]2C(=O)N[C@@H](CC(=O)OC(C)(C)C)c2ccc(-c3scnc3C)cc2)C(C)C)on1 [VHL-SF2, tert-Butyl (S)-3-((2S,4R)-4-(Fluorosulfonyl)-1-((R)-3-methyl-2-(3-methylisoxazol-5-yl)butanoyl)pyrr-olidine-2-carboxamido)-3-(4-(4-methylthiazol-5-yl)phenyl)propanoate]
physchem; pH 4
  half-life: 38 h
physchem; pH 5
  half-life: 14 h
physchem; pH 6
  half-life: 15 h
physchem; pH 7.5
  half-life: 0.4 h
BRD4-HiBiT HEK293T cells
  cytotoxicity (CellTiter-Glo): no evidence of cytotoxicity
VHL (VCB)
  conversion, single (mono) labelling of VHL: 65%
